{"source": "patent US12421317B2", "about": "“Polynucleotides encoding anti-glucagon-like peptide 1 receptor (GLP1R) antagonist antibodies” (Regeneron Pharmaceuticals, Inc., priority 2020, dated 2025)", "test_system": "GLP1R humanized mice", "test": "GLP1-induced hypoglycemia (Exendin-4 challenge) in GLP1R humanized mice, glucose AUC (Example 6)", "assay_type": "in vivo", "conditions": "for Normalized glucose AUC during Exendin-4 challenge: Exendin-4 at 0-min, test article 10 mg/kg s.c., mean", "protocol": "Thirty-nine, 2.5-month-old male GLP1R humanized mice were randomly divided into one group of sixteen mice, two groups of eight mice, and one group of seven mice. On Day 0, the group of sixteen animals (Groups 1 and 2) were administered subcutaneously (s.c.) with a hIgG4 isotype control antibody (referred to as isotype control, dose of 10 mg/kg). […] The group of seven animals (Group 5) was administered s.c. (dose of 10 mg/kg) with mAb36986. […] […] At the same time point, animals in Groups 3, 4, and 5 were administered i.p. with Exendin-4 (dose of 0.01 mg/kg). For all animals, blood glucose levels were measured with a handheld glucometer immediately before and 15, 30, 60, and 120 minutes after saline or Exendin-4 administration. All animals remained in their assigned groups until the study completion on Day 80. With animals in Groups 1, 2, 4, and 5, the Exendin-4 challenge was repeated on Days 3, 7, 15, 21, 29, 65, and 80.\nThe AUC value of each animal at each challenge was normalized to the mean AUC value of Group 1. Statistical analyses were performed by one-way ANOVA followed by Bonferroni post-hoc tests, comparing Groups 1, 3, 4, or 5 to Group 2, for each challenge.", "note": "Marks after values point to notes of the source that are not given here."}
{"substance": "Exendin-3 (9-39) amide [Exendin-9, reference compound]", "values": [{"measurement": "correction of Exendin-4 induced hypoglycemia", "setting": "10 mg/kg s.c.", "value": "correction of Exendin-4 induced hypoglycemia when Exendin-4 challenge was performed 30 minutes post Exendin-9 administration, but not when the challenge was performed 4.5 or 24 hours post Exendin-9 administration"}, {"measurement": "Normalized glucose AUC during Exendin-4 challenge", "setting": "0.5 h post test article", "value": "101.3**** % of Group 1"}, {"measurement": "Normalized glucose AUC during Exendin-4 challenge", "setting": "4.5 h post test article", "value": "70.1 % of Group 1"}, {"measurement": "Normalized glucose AUC during Exendin-4 challenge", "setting": "24 h post test article", "value": "74.1 % of Group 1"}]}
